Assay results as given in patent US10766917B2, “Nucleotides for the treatment of cancer” (IDENIX PHARMACEUTICALS LLC, priority 2015, dated 2020).
pIC50: −log10 of the molar value.

What was measured:
Experiment in all cases: In vitro inhibition, CellTiter-Glo (CTG) assay
Type in all cases: cell-based
HCT-116 = details: 72 hr exposure
Experimental: (§1) Cells were grown in RPMI-1640 supplemented with L-Glutamine and 10% FBS of the following cell lines:
(§2) CCRF-CEM; HL-60; KG-1; CFPAC-1; MiaPACA-2; BxPC-3; HepG2; MDA-MB-231; HCT-116; A498; and NCI-H69
(§3) 18, 96 well plates of each cell line were seeded with the optimized number of cells per well in a total volume of 50 μper well. The plates were left overnight. Plate wells were seeded with 100 pt media for media control. The following day, cells were exposed to test compounds as described below. At the same time as drug exposure, a CTG assay was conducted on the 18th plate for the 0 hr count.
(§4) The compounds were added to cells and medium already on the plate to give desired final concentrations. 50 μL media were added to cell control wells, and 50 μL of mix added to vehicle control wells. 10 μM Doxorubicin was added to appropriate wells as control. Cells exposed to test compound were incubated at 37° C. for 72 hr followed by a CTG assay.
(§5) At the end of the 72 hr exposure period, plates were removed for a CellTiter-Glo (CTG) assay from a 37° C., 5% CO2 incubator and placed on the bench at room temperature for 30 mins. 100 μL of CellTiter-Glo reagent was added and mixed for 2 mins, followed by a further 10 min incubation at room temperature. Luminescence was recorded using Synergy 4.0.

MiaPACA-2 = details: 72 hr exposure
Experimental: as §1, §2, §3, §4, §5

NCI-H69 = tested on: NCI-H69
Experimental: as §1, §2, §3, §4, §5

A498 = details: 72 hr exposure
Experimental: as §1, §2, §3, §4, §5

CFPAC-1 = details: 72 hr exposure
Experimental: as §1, §2, §3, §4, §5

HepG2 = details: 72 hr exposure
Experimental: as §1, §2, §3, §4, §5

BxPC-3 = details: 72 hr exposure
Experimental: as §1, §2, §3, §4, §5

MDA-MB-231 = tested on: MDA-MB-231
Experimental: as §1, §2, §3, §4, §5

[1] = Homo sapiens, MDA-MB-231, 72 hr exposure
[2] = Homo sapiens, NCI-H69, 72 h, 72 hr exposure

Row | SMILES | pIC50 (HCT-116) | pIC50 (MiaPACA-2) | pIC50 (HepG2) | pIC50 (BxPC-3) | pIC50 (MDA-MB-231; [1]) | pIC50 (MiaPACA-2; Homo sapiens, MIA PaCa-2, 72 h) | pIC50 (NCI-H69; 72 hr exposure) | pIC50 (HepG2; Homo sapiens, HepG2, 72 h) | pIC50 (BxPC-3; Homo sapiens, BXPC-3, 72 h) | pIC50 (MDA-MB-231; 72 hr exposure) | pIC50 (HCT-116; Homo sapiens, HCT-116, 72 h) | pIC50 (NCI-H69; [2]) | pIC50 (NCI-H69; Homo sapiens, NCI-H69, 72 hr exposure) | pIC50 (A498) | pIC50 (CFPAC-1) | pIC50 (CFPAC-1; Homo sapiens, CFPAC-1, 72 h) | pIC50 (A498; Homo sapiens, A498, 72 h)
1 | CC(C)OC(=O)[C@@H](C)NP1(=O)OC[C@H]2O[C@@H](n3ccc(N)nc3=O)C(F)(F)[C@@H]2O1 (single isomer, unassigned) [101 (diastereomer 1)] | 5.00 to 6.00 | > 6.00 | > 6.00 | 4.00 to 5.00 | 4.00 to 5.00 |  |  |  |  |  |  |  | 4.00 to 5.00 | 5.00 to 6.00 | > 6.00 |  | 
2 | CC(C)OC(=O)[C@@H](C)NP1(=O)OC[C@H]2O[C@@H](n3ccc(N)nc3=O)C(F)(F)[C@@H]2O1 (single isomer, unassigned) [101 (diastereomer 2)] | 4.00 to 5.00 |  |  |  |  | 5.00 to 6.00 | 4.00 to 5.00 | 5.00 to 6.00 | 4.00 to 5.00 | 4.00 to 5.00 |  |  |  | 4.00 to 5.00 |  | 5.00 to 6.00 | 
3 | CC(C)(C)C(=O)SCCOP1(=O)OC[C@H]2O[C@@H](n3ccc(N)nc3=O)C(F)(F)[C@@H]2O1 (single isomer, unassigned) [104 (diastereomer 1)] |  |  |  |  | 5.00 to 6.00 | > 6.00 |  | > 6.00 | > 6.00 |  | 5.00 to 6.00 | 5.00 to 6.00 |  | 4.00 to 5.00 |  | > 6.00 | 
4 | CC(C)(C)C(=O)SCCOP1(=O)OC[C@H]2O[C@@H](n3ccc(N)nc3=O)C(F)(F)[C@@H]2O1 (single isomer, unassigned) [104 (diastereomer 2)] | 5.00 to 6.00 | > 6.00 | > 6.00 | > 6.00 |  |  | 5.00 to 6.00 |  |  | 5.00 to 6.00 |  |  |  | > 6.00 | > 6.00 |  | 
5 | CC(C)C(=O)OC[C@@H](C)NP1(=O)OC[C@H]2O[C@@H](n3ccc(N)nc3=O)C(F)(F)[C@@H]2O1 (single isomer, unassigned) [105 (diastereomer 1)] | > 6.00 |  |  |  | 4.00 to 5.00 | > 6.00 | 5.00 to 6.00 | > 6.00 | > 6.00 |  |  |  |  | 4.00 to 5.00 |  | > 6.00 | 
6 | CC(C)C(=O)OC[C@@H](C)NP1(=O)OC[C@H]2O[C@@H](n3ccc(N)nc3=O)C(F)(F)[C@@H]2O1 (single isomer, unassigned) [105 (diastereomer 2)] | 4.00 to 5.00 | 5.00 to 6.00 | > 6.00 | 5.00 to 6.00 |  |  | 4.00 to 5.00 |  |  | 4.00 to 5.00 |  |  |  | 5.00 to 6.00 | 5.00 to 6.00 |  | 

Second part, led by results:

Row | pIC50 (HCT-116) | pIC50 (MiaPACA-2) | pIC50 (HepG2) | pIC50 (BxPC-3) | pIC50 (MDA-MB-231; [1]) | pIC50 (MiaPACA-2; Homo sapiens, MIA PaCa-2, 72 h) | pIC50 (NCI-H69; 72 hr exposure) | pIC50 (HepG2; Homo sapiens, HepG2, 72 h) | pIC50 (BxPC-3; Homo sapiens, BXPC-3, 72 h) | pIC50 (MDA-MB-231; 72 hr exposure) | pIC50 (HCT-116; Homo sapiens, HCT-116, 72 h) | pIC50 (NCI-H69; [2]) | SMILES | pIC50 (NCI-H69; Homo sapiens, NCI-H69, 72 hr exposure) | pIC50 (A498) | pIC50 (CFPAC-1) | pIC50 (CFPAC-1; Homo sapiens, CFPAC-1, 72 h) | pIC50 (A498; Homo sapiens, A498, 72 h)
7 | 4.00 to 5.00 |  |  | 4.00 to 5.00 | 4.00 to 5.00 | 5.00 to 6.00 |  | > 6.00 |  |  |  | 4.00 to 5.00 | COC(=O)[C@H](CCCCNP1(=O)OC[C@H]2O[C@@H](n3ccc(N)nc3=O)C(F)(F)[C@@H]2O1)NC(=O)OC(C)(C)C (single isomer, unassigned) [106 (diastereomer 1)] |  |  |  | 5.00 to 6.00 | 4.00 to 5.00
8 | 5.00 to 6.00 | 5.00 to 6.00 | > 6.00 | 5.00 to 6.00 |  |  | 4.00 to 5.00 |  |  | 4.00 to 5.00 |  |  | COC(=O)[C@H](CCCCNP1(=O)OC[C@H]2O[C@@H](n3ccc(N)nc3=O)C(F)(F)[C@@H]2O1)NC(=O)OC(C)(C)C (single isomer, unassigned) [106 (diastereomer 2)] |  | 4.00 to 5.00 | 5.00 to 6.00 |  | 
9 | 4.00 to 5.00 | 4.00 to 5.00 | 4.00 to 5.00 | 4.00 to 5.00 | 4.00 to 5.00 |  |  |  |  |  |  | 4.00 to 5.00 | CC(C)(C)SSCCOP(=O)(NCc1ccccc1)OC[C@H]1O[C@@H](n2ccc(N)nc2=O)C(F)(F)[C@@H]1O (single isomer, unassigned) [111 (diastereomer 1)] |  |  | 4.00 to 5.00 |  | 4.00 to 5.00
10 | > 6.00 | > 6.00 | > 6.00 | 5.00 to 6.00 |  |  | 4.00 to 5.00 |  |  | 4.00 to 5.00 |  |  | CC(C)(C)SSCCOP(=O)(NCc1ccccc1)OC[C@H]1O[C@@H](n2ccc(N)nc2=O)C(F)(F)[C@@H]1O (single isomer, unassigned) [111 (diastereomer 2)] |  | 4.00 to 5.00 | > 6.00 |  | 
